# Reference: paper PMC11930985 (Nature Communications, 2025)
# Several values for one entry are separate records, joined by “and”; a condition that tells them apart may be missing. Equal values may be shown once.
# Key:
# AML/MDS patients = test: Dose-limiting toxicity assessment, 3+3 dose escalation; assay type: in vivo
# Source text: The study consisted of a phase 1b dose escalation, followed by a phase 2a cohort expansion. […] Due to the introduction of an enhanced formulation, the study was extended with a second dose escalation cohort following a 3 + 3 study design, also with expansion at the selected dose (Fig. 1).
# The conventional 3 + 3 study design gives a 71% chance of escalation if the true but unknown rate of DLT is 20%, and <50% chance of escalation if the true but unknown rate of DLT is >30%. […] Based on a one-sided, within-group test of proportions comparing an anticipated ORR of >20% against the null hypothesis rate of 5%, with power 80% and type I error 0.2 (suitable as evidence of a trend worthy of future study), a sample size of up to 14 evaluable patients was selected for B2. On the same basis, for B5 an initial sample size of 14 relapsed and 14 refractory AML patients was planned. However, upon regulatory review by the FDA, this was reduced to 20 R/R AML patients with 4 refractory AML patients. For this early-stage study, the efficacy analyses are secondary endpoints, and no account was taken of the multiplicity inherent in the assessment of several, presumably non-independent criteria, for ORR.
# [1] = test system: bone marrow cells from patients with primary AML; design: method as in Ben-Batalla et al., 2013; settings: ref Ben-Batalla et al., 2013; cited from earlier work
# hERG channel = test system: hERG channel; design: method as in Investigator's Brochure (IB) version 5.0; settings: ref Investigator's Brochure (IB) version 5.0; cited from earlier work
# pAXL = target: T1, pAXL (Homo sapiens, UniProt P30530); test: CyTOF maximal pAXL inhibition in AML blasts vs bemcentinib concentration; assay type: in vivo
# T1 construct: AML blasts were identified within the peripheral blood mononuclear cell population by CyTOF; endogenous in cells
# T1 sequence (P30530 26-894): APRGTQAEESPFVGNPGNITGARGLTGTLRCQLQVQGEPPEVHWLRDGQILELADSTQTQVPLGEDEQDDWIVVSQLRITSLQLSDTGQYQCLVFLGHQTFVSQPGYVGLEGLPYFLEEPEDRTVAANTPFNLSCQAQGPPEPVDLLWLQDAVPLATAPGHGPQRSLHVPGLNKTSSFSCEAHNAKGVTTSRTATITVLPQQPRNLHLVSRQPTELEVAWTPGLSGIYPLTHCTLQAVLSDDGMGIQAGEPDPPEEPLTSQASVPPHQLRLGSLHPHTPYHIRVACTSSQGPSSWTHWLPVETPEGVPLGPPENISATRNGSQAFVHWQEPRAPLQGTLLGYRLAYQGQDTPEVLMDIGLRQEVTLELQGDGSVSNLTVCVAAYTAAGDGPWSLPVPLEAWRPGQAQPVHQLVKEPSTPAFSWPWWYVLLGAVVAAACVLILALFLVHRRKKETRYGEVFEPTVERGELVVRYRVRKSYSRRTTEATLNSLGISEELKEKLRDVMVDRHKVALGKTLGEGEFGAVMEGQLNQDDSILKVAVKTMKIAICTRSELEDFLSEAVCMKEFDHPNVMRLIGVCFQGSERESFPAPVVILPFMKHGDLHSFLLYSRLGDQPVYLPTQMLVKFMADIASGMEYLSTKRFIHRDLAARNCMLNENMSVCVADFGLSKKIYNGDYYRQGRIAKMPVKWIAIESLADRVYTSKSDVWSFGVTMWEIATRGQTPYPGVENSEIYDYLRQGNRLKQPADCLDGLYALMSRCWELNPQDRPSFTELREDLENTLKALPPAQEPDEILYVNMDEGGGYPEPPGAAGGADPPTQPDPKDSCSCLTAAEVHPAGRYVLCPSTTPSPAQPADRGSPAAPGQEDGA
# Source text: Pharmacodynamic endpoints included the measurement of inhibition of pAXL, pERK, pAKT, pS6 and pSTAT1/3/5 in blast cells (defined as cells with abnormal surface marker expression as compared to healthy donor peripheral blood mononuclear cells and undefined/immature myeloid cells (defined as cells carrying myeloid markers but lacking distinguishing terminal differentiation markers). Mass cytometry time of flight (CyTOF) was used for the determination of the pharmacodynamic markers using a previously validated and tested panel of mass-tagged antibodies[39],[40]. The antibodies in the panel are listed in Supplementary Table 5. Briefly, fixed leukocytes from peripheral blood were barcoded using a 20-plex metal barcoding kit (Standard Biotools, Cell-ID 201060) according to manufacturer’s protocol, allowing all the samples from a single individual to be stained and analysed in parallel. All analysis runs included barcoded peripheral blood mononuclear cells (PBMCs) from at least one healthy donor and an identical barcoded reference sample (mix of PBMCs from six healthy donors). Barcoded cells (approx. 6 × 10^6) were treated with FC receptor block (Octagam, 1:1000 (Octapharma) in MaxPar cell staining buffer (CSB, Standard Biotools 201068), 15 min, room temperature) and treated with heparin (100 IU/mL in CSB, 20 min) to reduce non-specific staining artefacts. The sample was then stained with an optimised mixture of mass-tagged surface antibodies in a total staining volume of 600 μL (30 min, room temperature). Subsequently, the sample was permeabilized with cold (-20 °C) 100 % methanol (15 min, on ice), re-treated with heparin, and stained with a panel of intracellular mass-tagged antibodies (as described above). DNA was labelled with iridium-191/193 by incubation in 0.1 nM Ir-nucleic acid intercalator (Standard Biotools 201192) diluted in MaxPar PBS (Standard biotools 201058) containing 4% PFA overnight at 4 °C. […]
# For each population, marker, and sample, the 95th percentile of the non-transformed expression values was calculated. […]
smiles,measurement,setting,value
Nc1nc(Nc2ccc3c(c2)CC[C@@H](N2CCCC2)CC3)nn1-c1cc2c(nn1)-c1ccccc1CCC2 [Bemcentinib],Formal criteria for a maximum tolerated dose,AML/MDS patients; DE cohort,not met
same,Recommended phase 2 dose (loading/maintenance),"AML/MDS patients; human, in vivo, 3 weeks",400/200
same,Dose-limiting toxicities (DLT) observed,AML/MDS patients; in vivo,Three
same,Patients whose bone marrow cells were sensitive to BGB324,[1],7 out of 11
same,Sensitization of primary patient AML cells to Ara-C,[1],sensitizes
same,IC50,hERG channel,530 nM
same,Maximum inhibition (percent) pAXL(Y779),"pAXL; Figure 4, individual patients (Pt 1-13)",14.7% and 1.3% and 25.7% and 0.4% and 26.3% and 2.9% and 13.4% and 0% and 16.1% and 15.5% and 11.4% and 7%
same,Plasma concentrations at which inhibition of pAXL was seen,"pAXL; peripheral blood, DE cohort",45–347 ng/mL
same,Time to intracellular phospho-signaling changes vs pre-treatment,"pAXL; peripheral blood, DE cohort",≤ 4 h
